Results reported in ChEMBL document CHEMBL1201862, “PubChem BioAssay data set” (2004).
Counter-ions that a name gives are not always drawn.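 Step 1: Grow cells in 96-well plates. Step 2: Expose to compound for 48 hours at 5 concentrations. Step 3: Interpolate endpoints linearly; if unreached, use highest concentration. GI50 = concentration required for 50% inhibition of growth.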 Active and inactive are the calls of the source. Cut-off read from the data, not from the text of the source: active = GI50 up to about 1.1 µM and inactive = higher.

Key:
Experiment in all cases: inhibition of tumour cell growth, NCI panel, 48 h
DU-145 = tested on: DU-145
MDA-MB-231 = tested on: MDA-MB-231
MDA-N = tested on: MDA-N
PC-3 = tested on: PC-3
SR = tested on: SR
T47D = tested on: T47D
BT-549 = tested on: BT-549
786-0 = tested on: 786-0
RXF 631 = tested on: RXF 631

With `COc1ccc(N2C(=O)C3c4[nH]c5cc(C)ccc5c4C4CCC(C(C)(C)C)CC4C3C2=O)cc1` (centres undefined) as the molecule, how does the GI50 (DU-145) read?
The GI50 was > 10 µM (inactive).

What about the GI50 (MDA-MB-231) of the same molecule?
The GI50 was > 10 µM (inactive).

And the GI50 (MDA-N)?
Its GI50 is > 10 µM (inactive).

And the GI50 (PC-3)?
The GI50 was 5.24 µM (inactive).

What about the GI50 (SR) of the same molecule?
The GI50 was > 10 µM (inactive).

And the GI50 (T47D)?
The GI50 was > 10 µM (inactive).

`O=C(O)CN1CCCC(Cc2c[nH]c3ccccc23)C1` (centres undefined) was tested. Which GI50 (BT-549) did it give?
The GI50 was > 100 µM (inactive).

What about the GI50 (DU-145) of the same molecule?
The GI50 was > 100 µM (inactive).

And the GI50 (MDA-MB-231)?
Its GI50 is > 100 µM (inactive).

And the GI50 (MDA-N)?
The GI50 was > 100 µM (inactive).

What about the GI50 (PC-3) of the same molecule?
Its GI50 is > 100 µM (inactive).

With `O=C1C[C@H](c2ccccc2)C2(C(=O)c3ccccc3C2=O)[C@@H](c2ccccc2)C1` as the molecule, how does the GI50 (BT-549) read?
The GI50 was 19.6 µM (inactive).

And the GI50 (DU-145)?
Its GI50 is 48.6 µM (inactive).

What about the GI50 (MDA-MB-231) of the same molecule?
Its GI50 is 20.7 µM (inactive).

And the GI50 (MDA-N)?
The GI50 was 16.2 µM (inactive).

What about the GI50 (PC-3) of the same molecule?
Its GI50 is 10.8 µM (inactive).

What about the GI50 (SR) of the same molecule?
Its GI50 is 92.7 µM (inactive).

And the GI50 (T47D)?
Its GI50 is 43.1 µM (inactive).

`CC1OC(OC2C(OC(=O)[C@@H]3CC(C)(C)C[C@H]4C5=CC[C@@H]6[C@@]7(C)C[C@H](O)[C@H](OC8OC(CO)C(O)C(O)C8O)[C@@](C)(CO)[C@@H]7[C@H](O)C[C@@]6(C)[C@]5(C)CC[C@@]34C)OCC(O)C2O)C(O)C(O)C1O` (some centres undefined) was tested. Which GI50 (786-0) did it give?
The GI50 was > 7.5 µM (inactive).

And the GI50 (BT-549)?
The GI50 was > 7.5 µM (inactive).

And the GI50 (DU-145)?
The GI50 was > 7.5 µM (inactive).

What about the GI50 (MDA-MB-231) of the same molecule?
The GI50 was > 7.5 µM (inactive).

What about the GI50 (MDA-N) of the same molecule?
The GI50 was > 7.5 µM (inactive).

What about the GI50 (PC-3) of the same molecule?
Its GI50 is > 7.5 µM (inactive).

What about the GI50 (T47D) of the same molecule?
Its GI50 is > 7.5 µM (inactive).

How did the GI50 (786-0) turn out when `C=CC(OCC)(OCC)OCC` was run?
Its GI50 is 23.5 µM (inactive).

And the GI50 (RXF 631)?
The GI50 was > 100 µM (inactive).

And the GI50 (SR)?
Its GI50 is 29.9 µM (inactive).

Which results are given for `CC1=C(C(=O)N[C@@H](CC(C)C)C(=O)O)N2C(=O)[C@@H](NC(=O)C(N)c3ccccc3)[C@H]2SC1` (some centres undefined)?
GI50 (786-0): > 100 µM (inactive); GI50 (BT-549): > 100 µM (inactive); GI50 (DU-145): > 100 µM (inactive); GI50 (MDA-MB-231): > 100 µM (inactive); GI50 (MDA-N): > 100 µM (inactive); GI50 (PC-3): > 100 µM (inactive); GI50 (SR): > 100 µM (inactive); GI50 (T47D): > 100 µM (inactive)

How did the GI50 (786-0) turn out when `CC1CC2C3CC(F)C4=CC(=O)C=CC4(C)C3(F)C(O)CC2(C)C1(O)C(=O)COC(=O)C(C)(C)C` (centres undefined) was run?
Its GI50 is 68.1 µM (inactive).

And the GI50 (SR)?
Its GI50 is > 100 µM (inactive).

How did the GI50 (RXF 631) turn out when `CC(=O)N/C(=C\c1ccc(/C=C(\NC(C)=O)C2=NC3C(=O)c4ccccc4C(=O)C3N2)cc1)C1=NC2C(=O)c3ccccc3C(=O)C2N1` (centres undefined) was run?
Its GI50 is 19.7 µM (inactive).

How did the GI50 (SR) turn out when `O=C1c2ccccc2C(=O)c2c1ccc1c2N=C(c2ccc(F)cc2)CC(c2ccc(Cl)c(Cl)c2)N1` (centres undefined) was run?
The GI50 was 5.93 µM (inactive).

Which GI50 (786-0) does the source give for `O=C(/C=C/c1ccc(Cl)c(Cl)c1)C1CCC(Cl)CC1` (centres undefined) here?
The GI50 was 16.8 µM (inactive).

What about the GI50 (RXF 631) of the same molecule?
The GI50 was 18.5 µM (inactive).

With `Nc1c(Cl)c([N+](=O)[O-])cc2c1OCCCCO2` as the molecule, how does the GI50 (786-0) read?
The GI50 was > 100 µM (inactive).

And the GI50 (DU-145)?
The GI50 was > 100 µM (inactive).

What about the GI50 (MDA-MB-231) of the same molecule?
Its GI50 is 83.4 µM (inactive).

What about the GI50 (MDA-N) of the same molecule?
Its GI50 is > 100 µM (inactive).

What about the GI50 (PC-3) of the same molecule?
Its GI50 is > 100 µM (inactive).

What about the GI50 (SR) of the same molecule?
Its GI50 is > 100 µM (inactive).

What about the GI50 (T47D) of the same molecule?
The GI50 was > 100 µM (inactive).

For `COc1ccc(/C=C2\Oc3cc(OC(C)=O)ccc3C2=O)cc1`, which GI50 (786-0) is on record?
Its GI50 is > 100 µM (inactive).

What about the GI50 (BT-549) of the same molecule?
Its GI50 is > 100 µM (inactive).

And the GI50 (DU-145)?
Its GI50 is > 100 µM (inactive).

What about the GI50 (MDA-MB-231) of the same molecule?
The GI50 was > 100 µM (inactive).

And the GI50 (MDA-N)?
The GI50 was 76.2 µM (inactive).

What about the GI50 (PC-3) of the same molecule?
Its GI50 is > 100 µM (inactive).

What about the GI50 (SR) of the same molecule?
Its GI50 is 60.8 µM (inactive).

And the GI50 (T47D)?
The GI50 was > 100 µM (inactive).

What does the source list for `COc1cc(OC)c(SSCCCCS(=O)O)c(OC)c1`?
GI50 (786-0): 18.7 µM (inactive); GI50 (RXF 631): > 10 µM (inactive)

With `O=C1/C(=C/c2ccc(Cl)cc2)CNC/C1=C\c1ccc(Cl)cc1` as the molecule, how does the GI50 (786-0) read?
The GI50 was 1.28 µM (inactive).

What about the GI50 (BT-549) of the same molecule?
The GI50 was 1.18 µM (inactive).

And the GI50 (DU-145)?
Its GI50 is 2.65 µM (inactive).

What about the GI50 (MDA-MB-231) of the same molecule?
Its GI50 is 2.88 µM (inactive).

And the GI50 (MDA-N)?
The GI50 was 2.71 µM (inactive).

And the GI50 (PC-3)?
Its GI50 is 2.97 µM (inactive).

And the GI50 (SR)?
The GI50 was 0.495 µM (active).

What about the GI50 (T47D) of the same molecule?
The GI50 was 5 µM (inactive).

How did the GI50 (BT-549) turn out when `Nc1ccc2cc3ccc(N)cc3nc2c1` [PROFLAVINE SULFATE] was run?
Its GI50 is 3.19 µM (inactive).

And the GI50 (DU-145)?
The GI50 was 2.21 µM (inactive).

What about the GI50 (MDA-MB-231) of the same molecule?
Its GI50 is 1.62 µM (inactive).

And the GI50 (MDA-N)?
The GI50 was 1.21 µM (inactive).

What about the GI50 (RXF 631) of the same molecule?
The GI50 was 1.12 µM (inactive).

And the GI50 (SR)?
The GI50 was 0.444 µM (active).

And the GI50 (T47D)?
Its GI50 is 1.59 µM (inactive).
